Laboratory results from US11046954B2, “Targeted protein degradation to attenuate adoptive T-cell therapy associated adverse inflammatory responses” (Dana-Farber Cancer Institute, Inc., priority 2015, dated 2021).

How the values were obtained:
FKBP*-KRASG12V = assay: Immunoblot of NIH3T3 cells expressing FKBP* fused to KRASG12V: degradation; assay type: cell-based; conditions: 1 μM, 24 hours
Method: (§1) FIG. 19 is an immunoblot of NIH3T3 cells expressing KRASG12V allele fused to FKBP* in the N-terminus or C-terminus. Cells were treated with 500 nM dFKBP7 for the indicated time. Cells were harvested and immunoblotted to measure degradation of FKBP*-KRASG12V and downstream surrogates of KRAS signaling (e.g. pMEK and pAKT).
(§2) FIG. 20 is an immunoblot of NIH3T3 cells expressing FKBP* fused to the N-terminus of KRASG12V treated with luM of the indicated dFKBP heterobifunctional compounds for 24 hours. Cells were harvested and immunoblotted to measure degradation of FKBP*-KRASG12V and downstream surrogates of KRAS signaling (e.g. pMEK and pAKT).
as §2, with “21” for “20”, “with” for “with luM of”, “concentrations of dFKBP13” for “dFKBP heterobifunctional compounds”
(§3) FIG. 22 is an immunoblot of NIH3T3 cells expressing FKBP* fused to the N-terminus of KRASG12V treated with luM dFKBP13 for the indicated time. Cells were harvested and immunoblotted to measure degradation of FKBP*-KRASG12V and downstream surrogates of KRAS signaling (e.g. pMEK and pAKT).
(§4) Cells were treated with 500 nM dFKBP7 for the indicated time. Cells were harvested and immunoblotted to measure degradation of FKBP*-KRAS and downstream surrogates of KRAS signaling (e.g. pMEK and pAKT).
(§5) Western blotting of NIH3T3 cells expressing dTAG-KRASG12V were treated with 1 μM of the indicated dFKBP heterobifunctional compounds for 24 hours. Cells were harvested and immunoblotted to measure degradation of FKBP*-KRAS and downstream surrogates of KRAS signaling (e.g. pMEK and pAKT).
(§6) Western blotting of NIH3T3 cells expressing FKBP* fused to the N-terminus of KRAS treated with the indicated concentrations of dFKBP13 for 24 hours. Cells were harvested and immunoblotted to measure degradation of FKBP*-KRAS and downstream surrogates of KRAS signaling (e.g. pMEK and pAKT).
(§7) To evaluate the kinetic control of targeted degradation of dTAG-KRAS, dFKBP13 was administered by increased duration. Western blotting of NIH3T3 cells expressing FKBP* fused to the N-terminus of KRAS treated with 1 μM dFKBP13 for the indicated time. Cells were harvested and immunoblotted to measure degradation of FKBP*-KRAS and downstream surrogates of KRAS signaling (e.g. pMEK and pAKT).

[1] = system: downstream surrogates of KRAS signaling (e.g. pMEK and pAKT); assay: Immunoblot of NIH3T3 cells expressing FKBP*-KRASG12V: downstream KRAS signaling; assay type: cell-based; conditions: NIH3T3 FKBP*-KRASG12V; 1 μM, 24 hours
Method: as §1, §2
as §3, with “21” for “22”, “the indicated concentrations of” for “luM”, “24 hours.” for “the indicated time.”
as §3, §4, §5, §6, §7

## CC[C@H](C(=O)N1CCCC[C@H]1C(=O)O[C@H](CCc1ccc(OC)c(OC)c1)c1cccc(OCC(=O)NCCCCCCCCNC(=O)COc2cccc3c2C(=O)N(C2CCC(=O)NC2=O)C3=O)c1)c1cc(OC)c(OC)c(OC)c1 (some centres unmarked) [dFKBP9]
FKBP*-KRASG12V
  degradation of FKBP*-KRASG12V: potent degradation
[1]
  inhibition of downstream signaling (pMEK, pAKT): inhibition of downstream signaling
